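All cell lines were grown in 96-well plates and treated with compound for 48 hours. The concentration for full growth arrest is given as TGI.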
How the values were obtained:
Test in all cases: NCI tumour cell line growth inhibition, 48 h
[1] = test system: 786-0 renal
[2] = test system: A498 renal
[3] = test system: A549 NSCLC
[4] = test system: ACHN renal
[5] = test system: CAKI-1 renal
[6] = test system: CCRF-CEM leukemia
[7] = test system: COLO 205 colon
[8] = test system: DLD-1 colon
[9] = test system: DMS 114 small cell lung
[10] = test system: DMS 273 small cell lung
[11] = test system: HCC-2998 colon
[12] = test system: HCT-116 colon
[13] = test system: HCT-15 colon
[14] = test system: HL-60(TB) leukemia
[15] = test system: HOP-18 NSCLC
[16] = test system: HOP-62 NSCLC
[17] = test system: IGROV1 ovarian
[18] = test system: K-562 leukemia
[19] = test system: KM12 colon
[20] = test system: KM20L2 colon
[21] = test system: LXFL 529 NSCLC
[22] = test system: M14 melanoma
[23] = test system: M19-MEL melanoma
[24] = test system: MALME-3M melanoma
[25] = test system: MOLT-4 leukemia
[26] = test system: NCI-H226 lung
[27] = test system: NCI-H460 lung
[28] = test system: NCI-H522 lung
[29] = test system: OVCAR-3 ovarian
[30] = test system: OVCAR-4 ovarian
[31] = test system: OVCAR-8 ovarian
[32] = test system: RPMI-8226 leukemia
[33] = test system: RXF 393 renal
[34] = test system: SF-268 CNS
[35] = test system: SF-539 CNS
[36] = test system: SK-MEL-2 melanoma
[37] = test system: SK-MEL-28 melanoma
[38] = test system: SK-MEL-5 melanoma
[39] = test system: SK-OV-3 ovarian
[40] = test system: SN12C renal
[41] = test system: SNB-19 CNS
[42] = test system: SNB-75 CNS
[43] = test system: SNB-78 CNS
[44] = test system: SR leukemia
[45] = test system: SW-620 colon
[46] = test system: TK-10 renal
[47] = test system: U251 CNS
[48] = test system: UACC-257 melanoma
[49] = test system: UACC-62 melanoma
[50] = test system: UO-31 renal
[51] = test system: EKVX NSCLC
[52] = test system: HOP-92 NSCLC
[53] = test system: HT29 colon
[54] = test system: LOX IMVI melanoma
[55] = test system: NCI-H23 lung
[56] = test system: OVCAR-5 ovarian
[57] = test system: SF-295 CNS

Measured: TGI

CC1CC(C[N+](=O)[O-])CC2(C1)OCCO2 (stereo not given)
not listed: [51] | [52] | [53] | [54] | [55] | [56] | [57]
> 100 µM: all other assays above

COC(=O)C(=O)C(CC(=O)Nc1cc(Cl)ccc1Cl)C(=O)OC (stereo not given)
not listed: [8] | [23]
> 100 µM: all other assays above
